Laboratory results as given in patent US11219221B2 (FarmHannong Co., Ltd., priority 2017, dated 2022).

Tests used:
[1] = molecular target: Spirulina subsalsa PPO CyPPO16 (SEQ ID NO: 1) variant A162C (MBP fusion); assay: PPO enzyme inhibition (IC50), MBP-fused PPO; format: biochemical; conditions: 50 μM protoporphyrinogen IX, pH 8.0, room temperature, 30 min
Method: (§1) Thus, PPO proteins of wild type and variants were expressed as fused to MBP and were used for experiments.
(§2) The following process for purification of PPO protein was performed in a 4° C. cold room. Amylose resin (NEB) was packed to 1.5×15 cm column (Bio-Rad, Econo Columns 1.5×15 cm, glass chromatography column, max. vol), and the obtained protein extracts were loaded to the column at a flow rate of 0.2 ml/min. The column was washed with 3 column volumes of buffer and the presence of protein in the washing solution was examined. When the protein was no longer detected, the washing procedure was terminated. Then, the MBP-PPO protein was eluted with approximately 2 column volumes of buffer containing 20 mM maltose. The protein concentration of each eluent was determined and the elution was stopped when the protein was no longer detected. Ten microliter of each fraction was investigated for protein quantification and SDS-PAGE analysis. The highly pure fractions of PPO protein variants were used for the enzyme assay.
(§3) Since protoporphyrinogen IX, a substrate of PPO protein, was not commercially available, it was chemically synthesized in the laboratory. Overall process was performed in dark under nitrogen stream. […] of protoporphyrin IX was dissolved in 20 ml of 20% (v/v) EtOH, and stirred under dark condition for 30 minutes. The obtained protoporphyrin IX solution was put into a 15 ml screw tube in an amount of 800 μl, and flushed with nitrogen gas for 5 minutes. To this, 1.5 g of sodium amalgam was added and vigorously shaken for 2 minutes. The lid was opened to exhaust hydrogen gas in the tube. Thereafter, the lid was closed and incubated for 3 minutes. The protoporphyrinogen IX solution was filtered using syringe and cellulose membrane filter. […] To determine the enzyme activity of PPO protein, a reaction mixture was prepared with the following composition (based on 10 ml): 50 mM Tris-Cl (pH 8.0); 50 mM NaCl; 0.04% (v/v) Tween 20; 40 mM glucose (0.072 g); 5 units glucose oxidase (16.6 mg); and 10 units catalase (1 μl).
(§4) Hundred and eighty microliters of a reaction mixture containing the purified PPO protein were placed in 96 well plates and 20 μl of […] were added. […] The reaction proceeded at room temperature for 30 min and the fluorescence of protoporphyrin IX was measured using Microplate reader (Sense, Hidex) (excitation: 405 nm; emission: 633 nm). […] To this, 2.7 N HCl was added, and the absorbance at 408 nm was measured. A standard curve was generated using standard protoporphyrin IX, and PPO activity was measured by calibration of protoporphyrin IX using the standard curve of protoporphyrin IX.

[2] = molecular target: Spirulina subsalsa PPO CyPPO16 (SEQ ID NO: 1) variant A162L (MBP fusion); assay: PPO enzyme inhibition (IC50), MBP-fused PPO; format: biochemical; conditions: 50 μM protoporphyrinogen IX, pH 8.0, room temperature, 30 min
Method: as §1, §2, §3, §4

[3] = molecular target: Spirulina subsalsa PPO CyPPO16 (SEQ ID NO: 1) variant F156A (MBP fusion); assay: PPO enzyme inhibition (IC50), MBP-fused PPO; format: biochemical; conditions: 50 μM protoporphyrinogen IX, pH 8.0, room temperature, 30 min
Method: as §1, §2, §3, §4

[4] = molecular target: Spirulina subsalsa PPO CyPPO16 (SEQ ID NO: 1) variant F324V (MBP fusion); assay: PPO enzyme inhibition (IC50), MBP-fused PPO; format: biochemical; conditions: 50 μM protoporphyrinogen IX, pH 8.0, room temperature, 30 min
Method: as §1, §2, §3, §4

[5] = molecular target: Spirulina subsalsa PPO CyPPO16 (SEQ ID NO: 1) variant L327T (MBP fusion); assay: PPO enzyme inhibition (IC50), MBP-fused PPO; format: biochemical; conditions: 50 μM protoporphyrinogen IX, pH 8.0, room temperature, 30 min
Method: as §1, §2, §3, §4

[6] = molecular target: Spirulina subsalsa PPO CyPPO16 (SEQ ID NO: 1) variant R85A (MBP fusion); assay: PPO enzyme inhibition (IC50), MBP-fused PPO; format: biochemical; conditions: 50 μM protoporphyrinogen IX, pH 8.0, room temperature, 30 min
Method: as §1, §2, §3, §4

[7] = molecular target: Spirulina subsalsa PPO CyPPO16 (SEQ ID NO: 1) variant V160C (MBP fusion); assay: PPO enzyme inhibition (IC50), MBP-fused PPO; format: biochemical; conditions: 50 μM protoporphyrinogen IX, pH 8.0, room temperature, 30 min
Method: as §1, §2, §3, §4

[8] = molecular target: Spirulina subsalsa PPO CyPPO16 (SEQ ID NO: 1) variant V305M (MBP fusion); assay: PPO enzyme inhibition (IC50), MBP-fused PPO; format: biochemical; conditions: 50 μM protoporphyrinogen IX, pH 8.0, room temperature, 30 min
Method: as §1, §2, §3, §4

[9] = molecular target: Spirulina subsalsa PPO CyPPO16, wild type, SEQ ID NO: 1 (MBP fusion); assay: PPO enzyme inhibition (IC50), MBP-fused PPO; format: biochemical; conditions: 50 μM protoporphyrinogen IX, pH 8.0, room temperature, 30 min
Method: as §1, §2, §3, §4

[10] = molecular target: Thermosynechococcus sp. NK55a PPO CyPPO17 (SEQ ID NO: 3) variant A166C (MBP fusion); assay: PPO enzyme inhibition (IC50), MBP-fused PPO; format: biochemical; conditions: 50 μM protoporphyrinogen IX, pH 8.0, room temperature, 30 min
Method: as §1, §2, §3, §4

[11] = molecular target: Thermosynechococcus sp. NK55a PPO CyPPO17 (SEQ ID NO: 3) variant F160A (MBP fusion); assay: PPO enzyme inhibition (IC50), MBP-fused PPO; format: biochemical; conditions: 50 μM protoporphyrinogen IX, pH 8.0, room temperature, 30 min
Method: as §1, §2, §3, §4

[12] = molecular target: Thermosynechococcus sp. NK55a PPO CyPPO17 (SEQ ID NO: 3) variant F323V (MBP fusion); assay: PPO enzyme inhibition (IC50), MBP-fused PPO; format: biochemical; conditions: 50 μM protoporphyrinogen IX, pH 8.0, room temperature, 30 min
Method: as §1, §2, §3, §4

[13] = molecular target: Thermosynechococcus sp. NK55a PPO CyPPO17 (SEQ ID NO: 3) variant A166L (MBP fusion); assay: PPO enzyme inhibition (IC50), MBP-fused PPO; format: biochemical; conditions: 50 μM protoporphyrinogen IX, pH 8.0, room temperature, 30 min
Method: as §1, §2
as §3, with “Overall” for “Since protoporphyrinogen IX, a substrate of PPO protein, was not commercially available, it was chemically synthesized in the laboratory. Overall”, “minutes.” for “minutes. The protoporphyrinogen IX solution was filtered using syringe and cellulose membrane filter.”
as §4

[14] = molecular target: Thermosynechococcus sp. NK55a PPO CyPPO17 (SEQ ID NO: 3) variant L326T (MBP fusion); assay: PPO enzyme inhibition (IC50), MBP-fused PPO; format: biochemical; conditions: 50 μM protoporphyrinogen IX, pH 8.0, room temperature, 30 min
Method: as §1, §2
as §3, with “Overall” for “Since protoporphyrinogen IX, a substrate of PPO protein, was not commercially available, it was chemically synthesized in the laboratory. Overall”, “minutes.” for “minutes. The protoporphyrinogen IX solution was filtered using syringe and cellulose membrane filter.”
as §4

[15] = molecular target: Thermosynechococcus sp. NK55a PPO CyPPO17 (SEQ ID NO: 3) variant R88A (MBP fusion); assay: PPO enzyme inhibition (IC50), MBP-fused PPO; format: biochemical; conditions: 50 μM protoporphyrinogen IX, pH 8.0, room temperature, 30 min
Method: as §1, §2
as §3, with “Overall” for “Since protoporphyrinogen IX, a substrate of PPO protein, was not commercially available, it was chemically synthesized in the laboratory. Overall”, “minutes.” for “minutes. The protoporphyrinogen IX solution was filtered using syringe and cellulose membrane filter.”
as §4

[16] = molecular target: Thermosynechococcus sp. NK55a PPO CyPPO17 (SEQ ID NO: 3) variant V164C (MBP fusion); assay: PPO enzyme inhibition (IC50), MBP-fused PPO; format: biochemical; conditions: 50 μM protoporphyrinogen IX, pH 8.0, room temperature, 30 min
Method: as §1, §2
as §3, with “Overall” for “Since protoporphyrinogen IX, a substrate of PPO protein, was not commercially available, it was chemically synthesized in the laboratory. Overall”, “minutes.” for “minutes. The protoporphyrinogen IX solution was filtered using syringe and cellulose membrane filter.”
as §4

[17] = molecular target: Thermosynechococcus sp. NK55a PPO CyPPO17 (SEQ ID NO: 3) variant V304M (MBP fusion); assay: PPO enzyme inhibition (IC50), MBP-fused PPO; format: biochemical; conditions: 50 μM protoporphyrinogen IX, pH 8.0, room temperature, 30 min
Method: as §1, §2
as §3, with “Overall” for “Since protoporphyrinogen IX, a substrate of PPO protein, was not commercially available, it was chemically synthesized in the laboratory. Overall”, “minutes.” for “minutes. The protoporphyrinogen IX solution was filtered using syringe and cellulose membrane filter.”
as §4

[18] = molecular target: Thermosynechococcus sp. NK55a PPO CyPPO17, wild type, SEQ ID NO: 3 (MBP fusion); assay: PPO enzyme inhibition (IC50), MBP-fused PPO; format: biochemical; conditions: 50 μM protoporphyrinogen IX, pH 8.0, room temperature, 30 min
Method: as §1, §2
as §3, with “Overall” for “Since protoporphyrinogen IX, a substrate of PPO protein, was not commercially available, it was chemically synthesized in the laboratory. Overall”, “minutes.” for “minutes. The protoporphyrinogen IX solution was filtered using syringe and cellulose membrane filter.”
as §4

[19] = system: transgenic A. thaliana (CyPPO16, CyPPO17 and variants); assay: Herbicide spray test on Arabidopsis (T1); format: in vivo, Arabidopsis thaliana; conditions: 1 μM spray (100 ml, 0.24 m^2), 4-week-old T1 plants
Excerpt: A. thaliana was transformed with a binary vector having ORF of a selectable marker, Bar gene (glufosinate-tolerant gene), and ORF of each mutant gene of CyPPO16 and CyPPO17. The transgenic plant was examined for cross-tolerance towards glufosinate and PPO-inhibiting herbicides. The bar gene was also used to examine whether the transgene was stably inherited during generations. NOS promoter and E9 terminator were used for bar gene expression.
In order to express proteins of CyPPO16, CyPPO16 variants, CyPPO17, and CyPPO17 variants in plants, a CaMV35S promoter and a NOS terminator were used. Encoding genes of CyPPO16, CyPPO16 variants, CyPPO17, and CyPPO17 variants were introduced into binary vector using Xhol and BamHI restriction enzymes. Furthermore, for confirmation of the protein expression, hemagglutinin (HA) tag was fused to the C-terminal region of PPO protein coding gene using BamHI and Sad restriction enzymes. In addition, in order to transit protein to chloroplast, transit peptide (TP) gene (SEQ ID NO: 90) of AtPPO1 gene (SEQ ID NO: 89) was fused to N-terminal region of PPO protein coding gene using Xbal and Xhol restriction enzymes.
Transgenic plants were screened with glufosinate tolerance which was conferred by Bar gene expression in the binary vector. […]

Compound: COC(=O)CCNC(=O)C(C)Sc1cc(-n2c(=O)cc(C(F)(F)F)n(C)c2=O)c(F)cc1Cl (stereo not shown) [tiafenacil]
- IC50 [1]: 0.079 µM
- IC50 [2]: 0.193 µM
- IC50 [3]: 0.06 µM
- IC50 [4]: 0.103 µM
- IC50 [5]: 0.04 µM
- IC50 [6]: 0.119 µM
- IC50 [7]: 0.045 µM
- IC50 [8]: 0.043 µM
- IC50 [9]: 0.026 µM
- IC50 [10]: 0.219 µM
- IC50 [11]: 0.115 µM
- IC50 [12]: 0.152 µM
- IC50 [13]: 1.13 µM
- IC50 [14]: 0.194 µM
- IC50 [15]: 0.152 µM
- IC50 [16]: 0.087 µM
- IC50 [17]: 0.102 µM
- IC50 [18]: 0.044 µM
- Plant damage after herbicide spray [19]: no damage
